Laboratory results as given in patent US10570149B2, “Tricyclic heterocylic derivatives” (MERCK PATENT GMBH, priority 2016, dated 2020).

Molecular target: T1, ATR/ATRIP (Homo sapiens, UniProt Q13535)
T1 construct: human ATR, full length, GenBank ID: NM_001184.3; p53: Sf21 insect cells
Experiment: ATR/ATRIP kinase assay (TR-FRET, p53 phosphorylation)
Assay type: biochemical
Details: Table 1, class symbols; read-out: ATR-ATRIP IC50
Experimental: ATR/ATRIP Kinase Assay—Measurement of ATR/ATRIP Inhibition
The IC50 value was determined by an ATR/ATRIP enzymatic assay. The assay comprises two steps: the enzymatic reaction and the detection step. First, a mixture of ATR/ATRIP protein (Ataxia Telangiectasia and Rad3-related protein/ATR interacting protein), the compound in question at different concentrations, p53 as substrate protein and adenosine triphosphate (ATP) are incubated in assay buffer. ATR phosphorylates p53 at Ser15 and other residues. The amount of phosphorylated p53 is then detected using specific antibodies and the TR-FRET assay technology.
In detail: The ATR/ATRIP enzymatic assay is performed as a TR-FRET-(HTRF™, Cisbio Bioassays) based 384-well assay. In a first step, purified human recombinant ATR/ATRIP (human ATR, full length, GenBank ID: NM_001184.3, and human ATRIP, full length, GenBank ID AF451323.1, co-expressed in a mammalian cell line) is incubated in assay buffer for 15 minutes at 22° C. with test compound at different concentrations or without test compound (as a negative control). The assay buffer contains 25 mM HEPES pH 8.0, 10 mM Mg(CH3COO)2, 1 mM MnCl2, 0.1% BSA, 0.01% Brij® 35, and 5 mM dithiothreitol (DTT). […] Then, in a second step, purified human recombinant cmyc-tagged p53 (human p53, full length, GenBank ID: BC003596, expressed in Sf21 insect cells) and ATP are added and the reaction mixture is incubated for 25-35 minutes, typically 25 minutes, at 22° C. The pharmacologically relevant assay volume is 5 μl. The final concentrations in the assay during incubation of the reaction mixture are 0.3-0.5 nM, typically 0.3 nM, ATR/ATRIP, 50 nM p53, and 0.5 μM ATP. The enzymatic reaction is stopped by the addition of EDTA. […] Following signal development for 2 h the plates are analyzed in an EnVision (PerkinElmer) microplate reader using the TRF mode with laser excitation. […] Data are processed employing the Genedata Screener software. In particular, IC50 values are determined in the usual manner by fitting a dose-response curve to the data points using nonlinear regression analysis.

T1 sequence (Q13535 whole entry): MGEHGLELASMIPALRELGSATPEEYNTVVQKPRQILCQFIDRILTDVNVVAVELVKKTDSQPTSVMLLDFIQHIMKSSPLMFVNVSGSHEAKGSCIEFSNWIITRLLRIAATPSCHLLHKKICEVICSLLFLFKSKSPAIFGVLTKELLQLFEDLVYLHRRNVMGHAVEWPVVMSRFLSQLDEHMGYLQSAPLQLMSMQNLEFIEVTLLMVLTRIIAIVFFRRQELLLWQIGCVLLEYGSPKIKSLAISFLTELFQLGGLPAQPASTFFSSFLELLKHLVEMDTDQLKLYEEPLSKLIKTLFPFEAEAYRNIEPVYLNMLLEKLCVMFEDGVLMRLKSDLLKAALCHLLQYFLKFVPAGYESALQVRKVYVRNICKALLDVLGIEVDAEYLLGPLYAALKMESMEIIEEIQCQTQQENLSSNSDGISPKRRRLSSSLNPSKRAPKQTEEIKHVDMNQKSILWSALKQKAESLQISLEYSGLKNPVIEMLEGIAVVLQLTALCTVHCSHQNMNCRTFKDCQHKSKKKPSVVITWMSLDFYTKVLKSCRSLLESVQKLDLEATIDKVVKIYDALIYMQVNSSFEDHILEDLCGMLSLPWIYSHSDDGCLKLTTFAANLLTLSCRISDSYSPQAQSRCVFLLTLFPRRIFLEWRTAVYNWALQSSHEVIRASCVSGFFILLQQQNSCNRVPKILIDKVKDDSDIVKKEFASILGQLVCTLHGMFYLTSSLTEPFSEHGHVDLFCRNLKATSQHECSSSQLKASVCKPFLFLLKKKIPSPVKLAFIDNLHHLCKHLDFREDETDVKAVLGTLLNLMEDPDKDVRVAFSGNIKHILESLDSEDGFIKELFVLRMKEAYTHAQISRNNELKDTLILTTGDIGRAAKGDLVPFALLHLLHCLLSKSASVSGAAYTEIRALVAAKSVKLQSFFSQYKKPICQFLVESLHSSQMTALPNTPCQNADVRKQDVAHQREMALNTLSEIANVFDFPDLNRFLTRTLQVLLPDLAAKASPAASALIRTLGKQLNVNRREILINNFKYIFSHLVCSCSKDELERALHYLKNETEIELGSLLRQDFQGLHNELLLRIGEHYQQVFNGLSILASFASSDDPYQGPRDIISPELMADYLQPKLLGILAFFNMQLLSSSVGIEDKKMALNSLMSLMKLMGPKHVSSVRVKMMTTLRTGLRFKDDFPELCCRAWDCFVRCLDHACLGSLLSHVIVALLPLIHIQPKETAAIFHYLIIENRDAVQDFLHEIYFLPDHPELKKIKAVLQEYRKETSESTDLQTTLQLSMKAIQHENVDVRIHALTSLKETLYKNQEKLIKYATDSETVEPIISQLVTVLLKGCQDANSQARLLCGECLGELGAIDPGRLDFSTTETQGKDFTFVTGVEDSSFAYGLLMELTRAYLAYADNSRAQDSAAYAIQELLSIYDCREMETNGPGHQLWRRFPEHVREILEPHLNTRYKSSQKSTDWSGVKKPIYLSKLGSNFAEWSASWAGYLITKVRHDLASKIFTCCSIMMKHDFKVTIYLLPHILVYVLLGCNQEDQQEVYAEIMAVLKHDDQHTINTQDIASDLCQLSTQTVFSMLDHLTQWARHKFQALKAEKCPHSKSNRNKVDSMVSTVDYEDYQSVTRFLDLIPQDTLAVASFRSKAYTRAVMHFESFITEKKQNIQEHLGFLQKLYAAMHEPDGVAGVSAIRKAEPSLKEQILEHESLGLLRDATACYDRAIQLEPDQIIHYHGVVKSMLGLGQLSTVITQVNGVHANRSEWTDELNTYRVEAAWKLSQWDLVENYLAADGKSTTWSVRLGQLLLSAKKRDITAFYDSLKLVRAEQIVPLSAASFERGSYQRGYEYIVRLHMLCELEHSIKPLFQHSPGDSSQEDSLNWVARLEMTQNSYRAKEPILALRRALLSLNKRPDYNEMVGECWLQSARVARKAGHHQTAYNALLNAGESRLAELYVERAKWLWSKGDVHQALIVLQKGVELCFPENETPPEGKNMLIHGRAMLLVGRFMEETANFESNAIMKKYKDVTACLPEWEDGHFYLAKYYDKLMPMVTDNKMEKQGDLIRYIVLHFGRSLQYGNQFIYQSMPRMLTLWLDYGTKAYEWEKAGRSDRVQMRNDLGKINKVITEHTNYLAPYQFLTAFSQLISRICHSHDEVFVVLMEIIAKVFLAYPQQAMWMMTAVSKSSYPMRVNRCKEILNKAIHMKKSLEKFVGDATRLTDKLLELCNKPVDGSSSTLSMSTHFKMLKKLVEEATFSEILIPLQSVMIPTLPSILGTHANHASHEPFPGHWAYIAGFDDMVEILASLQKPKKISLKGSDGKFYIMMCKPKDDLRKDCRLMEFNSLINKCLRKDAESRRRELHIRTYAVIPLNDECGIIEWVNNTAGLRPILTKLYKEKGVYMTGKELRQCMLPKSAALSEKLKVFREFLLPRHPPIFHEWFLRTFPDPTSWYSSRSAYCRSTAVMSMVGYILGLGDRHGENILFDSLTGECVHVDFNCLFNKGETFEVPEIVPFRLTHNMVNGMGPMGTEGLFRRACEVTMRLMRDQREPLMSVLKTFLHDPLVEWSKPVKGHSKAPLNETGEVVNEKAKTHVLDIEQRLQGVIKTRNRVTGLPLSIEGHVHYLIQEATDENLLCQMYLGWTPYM
T1 sequence (Q8WXE1 whole entry partner): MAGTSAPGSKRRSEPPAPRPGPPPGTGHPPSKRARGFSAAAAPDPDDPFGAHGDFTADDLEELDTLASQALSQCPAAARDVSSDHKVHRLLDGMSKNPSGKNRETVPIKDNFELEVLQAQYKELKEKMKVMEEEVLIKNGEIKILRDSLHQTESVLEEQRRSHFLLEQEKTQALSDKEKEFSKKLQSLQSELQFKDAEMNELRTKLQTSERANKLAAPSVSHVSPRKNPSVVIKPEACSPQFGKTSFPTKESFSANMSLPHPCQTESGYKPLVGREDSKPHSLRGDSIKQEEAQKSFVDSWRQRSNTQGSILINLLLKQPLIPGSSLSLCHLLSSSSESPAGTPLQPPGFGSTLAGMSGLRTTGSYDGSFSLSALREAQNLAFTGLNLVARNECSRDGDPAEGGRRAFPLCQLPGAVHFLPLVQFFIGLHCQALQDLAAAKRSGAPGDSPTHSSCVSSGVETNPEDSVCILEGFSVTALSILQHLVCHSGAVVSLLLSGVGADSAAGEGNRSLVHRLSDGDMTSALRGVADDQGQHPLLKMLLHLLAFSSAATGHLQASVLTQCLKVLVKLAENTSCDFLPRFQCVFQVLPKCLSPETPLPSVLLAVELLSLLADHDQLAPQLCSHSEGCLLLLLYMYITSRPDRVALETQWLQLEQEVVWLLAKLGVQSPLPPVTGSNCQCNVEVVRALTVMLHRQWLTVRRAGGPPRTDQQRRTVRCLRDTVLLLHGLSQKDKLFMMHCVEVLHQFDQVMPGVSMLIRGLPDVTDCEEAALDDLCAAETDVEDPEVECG

Row | SMILES | IC50 [nM]
1 | CNc1nc2ccccc2n1-c1nc2c(c(C(C)(C)S(C)(=O)=O)n1)OC[C@H]1COC[C@H](C)N21 [A14, {1-[(5S,8aR)-1-(1-Methanesulfonyl-1-methyl-ethyl)-5-methyl-5,6,8a,9-tetrahydro-8H-7,10-dioxa-2,4,4b-triaza-phenanthren-3-yl]-1H-benzimidazol-2-yl}-methyl-amine] | 10 to 100
2 | CNc1nc2ccccc2n1-c1nc(Cn2cc(C(=O)O)nn2)c2c(n1)N1[C@@H](COC[C@H]1C)CO2 [A17, 1-[(5R,8aS)-5-Methyl-3-(2-methylamino-benzimidazol-1-yl)-5,6,8a,9-tetrahydro-8H-7,10-dioxa-2,4,4b-triaza-phenanthren-1-ylmethyl]-1H[1,2,3]triazole-4-carboxylic Acid] | 100 to 500
3 | C[C@@H]1COC[C@H]2COc3c(nc(C(=O)N4CC[C@H](O)C4)nc3C(C)(C)S(C)(=O)=O)N21 [A48, ((S)-3-hydroxy-pyrrolidin-1-yl)-[(4bS,6R)-1-(1-methanesulfonyl-1-methyl-ethyl)-5-methyl-5,6,8a,9-tetrahydro-8H-7,10-dioxa-2,4,4b-triaza-phenanthren-3-yl]-methanone] | 500 to 30000
4 | C[C@@H]1COC[C@H]2COc3c(Cn4nncc4C(=O)O)nc(-c4ccnc5[nH]ccc45)nc3N21 [A2, 3-[(5R,8aS)-5-Methyl-3-(1H-pyrrolo[2,3-b]pyridin-4-yl)-5,6,8a,9-tetrahydro-8H-7,10-dioxa-2,4,4b-triaza-phenanthren-1-ylmethyl]-3H[1,2,3]triazole-4-carboxylic Acid] | 10 to 100
5 | C[C@@H]1COC[C@H]2COc3c(nc(-c4ccc5cc(N)ncc5c4)nc3C(C)(C)S(C)(=O)=O)N21 [A66, 7-[(5R,8aS)-1-(1-methanesulfonyl-1-methyl-ethyl)-5-methyl-5,6,8a,9-tetrahydro-8H-7,10-dioxa-2,4,4b-triaza-phenanthren-3-yl]-isoquinolin-3-ylamine] | 10 to 100
6 | C[C@@H]1COC[C@H]2COc3c(nc(Nc4cn[nH]c4)nc3C(C)(C)S(C)(=O)=O)N21 [A75, [(5R,8aS)-1-(1-methanesulfonyl-1-methyl-ethyl)-5-methyl-5,6,8a,9-tetrahydro-8H-7,10-dioxa-2,4,4b-triaza-phenanthren-3-yl]-(1H-pyrazol-4-yl)-amine] | 10 to 100
7 | C[C@@H]1COC[C@H]2COc3c(nc(-n4cc(C#N)c5ccccc54)nc3C(C)(C)S(C)(=O)=O)N21 [A70, 1-[(5R,8aS)-1-(1-methanesulfonyl-1-methyl-ethyl)-5-methyl-5,6,8a,9-tetrahydro-8H-7,10-dioxa-2,4,4b-triaza-phenanthren-3-yl]-1H-indole-3-carbonitrile] | 10 to 100
8 | C[C@@H]1COC[C@H]2COc3c(nc(C(=O)Nc4ccn[nH]4)nc3C(C)(C)S(C)(=O)=O)N21 [A47, (4bS,6R)-1-(1-methanesulfonyl-1-methyl-ethyl)-5-methyl-5,6,8a,9-tetrahydro-8H-7,10-dioxa-2,4,4b-triaza-phenanthrene-3-carboxylic Acid (2H-pyrazol-3-yl)-amide] | 500 to 30000
9 | CNc1nc2ccccc2n1-c1nc(Cn2nncc2C(=O)O)c2c(n1)N1[C@@H](COC[C@H]1C)CO2 [A3, 3-[(5R,8aS)-5-Methyl-3-(2-methylamino-benzoimidazol-1-yl)-5,6,8a,9-tetrahydro-8H-7,10-dioxa-2,4,4b-triaza-phenanthren-1-ylmethyl]-3H[1,2,3]triazole-4-carboxylic Acid] | 100 to 500
10 | COc1cnc2[nH]ccc2c1-c1nc2c(c(C(C)(C)S(C)(=O)=O)n1)OC[C@@H]1COC[C@@H](C)N21 [A88, (10S,14R)-6-(2-methanesulfonylpropan-2-yl)-4-{5-methoxy-1H-pyrrolo[2,3-b]pyridin-4-yl}-14-methyl-8,12-dioxa-1,3,5-triazatricyclo[8.4.0.0^2,7]tetradeca-2,4,6-triene] | 10 to 100
11 | C[C@@H]1COC[C@H]2COc3c(nc(-c4ccc(C5(N)COC5)cc4)nc3C(C)(C)S(C)(=O)=O)N21 [A62, 3-{4-[(5R,8aS)-1-(1-methanesulfonyl-1-methyl-ethyl)-5-methyl-5,6,8a,9-tetrahydro-8H-7,10-dioxa-2,4,4b-triaza-phenanthren-3-yl]-phenyl}-oxetan-3-ylamine] | 500 to 30000
12 | C[C@@H]1COC[C@H]2COc3c(nc(-c4c(C#N)cnc5[nH]ccc45)nc3C(C)(C)S(C)(=O)=O)N21 [A89, 4-[(10S,14R)-6-(2-methanesulfonylpropan-2-yl)-14-methyl-8,12-dioxa-1,3,5-triazatricyclo[8.4.0.0^{2,7}]tetradeca-2,4,6-trien-4-yl]-1H-pyrrolo[2,3-b]pyridine-5-carbonitrile] | 1 to 10
13 | C[C@@H]1COC[C@H]2COc3c(nc(-c4ccc(-c5ccn[nH]5)cc4)nc3C(C)(C)S(C)(=O)=O)N21 [A60, (5R,8aS)-1-(1-methanesulfonyl-1-methyl-ethyl)-5-methyl-3-[4-(2H-pyrazol-3-yl)-phenyl]-5,6,8a,9-tetrahydro-8H-7,10-dioxa-2,4,4b-triaza-phenanthrene] | 10 to 100
14 | C[C@@H]1COC[C@H]2COc3c(nc(N(C)c4nc5ccccc5[nH]4)nc3C(C)(C)S(C)(=O)=O)N21 [A16, (1H-Benzimidazol-2-yl)-[(5R,8aS)-1-(1-methanesulfonyl-1-methyl-ethyl)-5-methyl-5,6,8a,9-tetrahydro-8H-7,10-dioxa-2,4,4b-triaza-phenanthren-3-yl]-methyl-amine] | 10 to 100
15 | C[C@@H]1COC[C@H]2COc3c(nc(-c4cncc(CO)c4)nc3C(C)(C)S(C)(=O)=O)N21 [A40, {5-[(5R,8aS)-1-(1-methanesulfonyl-1-methyl-ethyl)-5-methyl-5,6,8a,9-tetrahydro-8H-7,10-dioxa-2,4,4b-triaza-phenanthren-3-yl]-pyridin-3-yl}-methanol] | 1 to 10
16 | C[C@@H]1COC[C@H]2COc3c(nc(-c4ccc(CCN)cc4)nc3C(C)(C)S(C)(=O)=O)N21 [A45, 2-{4-[(4bS,6R)-1-(1-methanesulfonyl-1-methyl-ethyl)-5-methyl-5,6,8a,9-tetrahydro-8H-7,10-dioxa-2,4,4b-triaza-phenanthren-3-yl]-phenyl}-ethylamine] | 10 to 100
17 | C[C@@H]1COC[C@H]2COc3c(nc(C(=O)Nc4ccnnc4)nc3C(C)(C)S(C)(=O)=O)N21 [A57, (4bS,6R)-1-(1-methanesulfonyl-1-methyl-ethyl)-5-methyl-5,6,8a,9-tetrahydro-8H-7,10-dioxa-2,4,4b-triaza-phenanthrene-3-carboxylic Acid pyridazin-4-ylamide] | 500 to 30000
18 | C[C@@H]1COC[C@H]2COc3c(nc(N(C)c4nc5ccccc5[nH]4)nc3C(C)(C)O)N21 [A12, 2-{(5R,8aS)-3-[(1H-Benzimidazol-2-yl)-methyl-amino]-5-methyl-5,6,8a,9-tetrahydro-8H-7,10-dioxa-2,4,4b-triaza-phenanthren-1-yl}-propan-2-ol] | 10 to 100
19 | CNc1nc2ccccc2n1-c1nc(Cn2cc(C(=O)OC)nn2)c2c(n1)N1[C@@H](COC[C@H]1C)CO2 [A22, 1-[(5R,8aS)-5-Methyl-3-(2-methylamino-benzoimidazol-1-yl)-5,6,8a,9-tetrahydro-8H-7,10-dioxa-2,4,4b-triaza-phenanthren-1-ylmethyl]-1H[1,2,3]triazole-4-carboxylic Acid Methyl Ester] | 10 to 100
20 | CNc1ncn(-c2nc3c(c(C(C)(C)S(C)(=O)=O)n2)OC[C@@H]2COC[C@@H](C)N32)n1 [A43] | 100 to 500
21 | C[C@@H]1COC[C@H]2COc3c(nc(C(=O)NC[C@@H](C)O)nc3C(C)(C)S(C)(=O)=O)N21 [A53, (4bS,6R)-1-(1-methanesulfonyl-1-methyl-ethyl)-5-methyl-5,6,8a,9-tetrahydro-8H-7,10-dioxa-2,4,4b-triaza-phenanthrene-3-carboxylic Acid ((R)-2-hydroxy-propyl)-amide] | 500 to 30000
22 | C[C@@H]1COC[C@H]2COc3c(nc(-n4ccc(O)n4)nc3C(C)(C)S(C)(=O)=O)N21 [A82, 1-[(5R,8aS)-1-(1-methanesulfonyl-1-methyl-ethyl)-5-methyl-5,6,8a,9-tetrahydro-8H-7,10-dioxa-2,4,4b-triaza-phenanthren-3-yl]-1H-pyrazol-3-ol] | 10 to 100
23 | C[C@@H]1COC[C@H]2COc3c(nc(C(=O)Nc4nnc[nH]4)nc3C(C)(C)S(C)(=O)=O)N21 [A55, (4bS,6R)-1-(1-methanesulfonyl-1-methyl-ethyl)-5-methyl-5,6,8a,9-tetrahydro-8H-7,10-dioxa-2,4,4b-triaza-phenanthrene-3-carboxylic Acid (4H-[1,2,4]triazol-3-yl)-amide] | 10 to 100
